The source of these data is PubChem BioAssay AID1259407 (Chemical Carcinogenesis Research Information System (CCRIS), 2018).

The data set has as its system CCRIS mutagenicity, Ames/micronucleus/aberration tests. In words: CCRIS mutagenicity studies.
Setting [1] is: Test System: AMES SALMONELLA TYPHIMURIUM, Strain/Indicator: TA98, Metabolic Activation: NONE, Method: PREINCUBATION
Setting [2] is: Test System: AMES SALMONELLA TYPHIMURIUM, Strain/Indicator: TA98, Metabolic Activation: NONE, Method: STANDARD PLATE.
Where [3] appears, read: Test System: AMES SALMONELLA TYPHIMURIUM, Strain/Indicator: TA100, Metabolic Activation: NONE, Method: STANDARD PLATE.

Active and inactive are the calls of the source. How the calls were made is not given here.

Take `O=C1C=CC(=O)c2ccccc21`: the mutagenic call by setting is: (End Point: In vitro chromosomal aberrations, Test System: Chinese hamster lung (CHL/IU) cells, Metabolic Activation: Rat, Liver, S9, Phenobarbital and 5,6-benzoflavone) “active; positive (structural changes). toxic at 0.014 mg/ml”; (Test System: AMES SALMONELLA TYPHIMURIUM, Strain/Indicator: TA97, Metabolic Activation: NONE, Method: PREINCUBATION) “inactive; negative”; (Test System: AMES SALMONELLA TYPHIMURIUM, Strain/Indicator: TA97, Metabolic Activation: NONE, Method: STANDARD PLATE) “inactive; negative”; (Test System: AMES SALMONELLA TYPHIMURIUM, Strain/Indicator: TA97, Metabolic Activation: RAT, LIVER, S-9, PCB, Method: STANDARD PLATE) “inactive; negative”; (Test System: AMES SALMONELLA TYPHIMURIUM, Strain/Indicator: TA97, Metabolic Activation: RAT, LIVER, S-9, PHENOBARBITAL AND 5,6-BENZOFLAVONE, Method: PREINCUBATION) “active; positive”; under setting [1], “inactive; negative”. For the same compound, the mutagenic call under setting [2] is “inactive; negative”; the mutagenic call (Test System: AMES SALMONELLA TYPHIMURIUM, Strain/Indicator: TA98, Metabolic Activation: RAT, LIVER, S-9, PCB, Method: STANDARD PLATE) is “inactive; negative”; the mutagenic call (Test System: AMES SALMONELLA TYPHIMURIUM, Strain/Indicator: TA98, Metabolic Activation: RAT, LIVER, S-9, PHENOBARBITAL AND 5,6-BENZOFLAVONE, Method: PREINCUBATION) is “inactive; negative”; the mutagenic call (Test System: AMES SALMONELLA TYPHIMURIUM, Strain/Indicator: TA100, Metabolic Activation: NONE, Method: PREINCUBATION) is “active; positive”; the mutagenic call under setting [3] is “inactive; negative”; the mutagenic call (Test System: AMES SALMONELLA TYPHIMURIUM, Strain/Indicator: TA100, Metabolic Activation: RAT, LIVER, S-9, PCB, Method: STANDARD PLATE) is “inactive; negative”. The mutagenic call is, setting by setting: (Test System: AMES SALMONELLA TYPHIMURIUM, Strain/Indicator: TA100, Metabolic Activation: RAT, LIVER, S-9, PHENOBARBITAL AND 5,6-BENZOFLAVONE, Method: PREINCUBATION) “active; positive”; (Test System: AMES SALMONELLA TYPHIMURIUM, Strain/Indicator: TA102, Metabolic Activation: NONE, Method: PREINCUBATION) “inactive; negative”; (Test System: AMES SALMONELLA TYPHIMURIUM, Strain/Indicator: TA102, Metabolic Activation: RAT, LIVER, S-9, PHENOBARBITAL AND 5,6-BENZOFLAVONE, Method: PREINCUBATION) “active; positive”; (Test System: AMES SALMONELLA TYPHIMURIUM, Strain/Indicator: TA104, Metabolic Activation: NONE, Method: PREINCUBATION) “active; positive”; (Test System: AMES SALMONELLA TYPHIMURIUM, Strain/Indicator: TA104, Metabolic Activation: RAT, LIVER, S-9, PHENOBARBITAL AND 5,6-BENZOFLAVONE, Method: PREINCUBATION) “active; positive”; (Test System: AMES SALMONELLA TYPHIMURIUM, Strain/Indicator: TA1535, Metabolic Activation: NONE, Method: PREINCUBATION) “inactive; negative”. The mutagenic call was “inactive; negative” (Test System: AMES SALMONELLA TYPHIMURIUM, Strain/Indicator: TA1535, Metabolic Activation: RAT, LIVER, S-9, PHENOBARBITAL AND 5,6-BENZOFLAVONE, Method: PREINCUBATION); “inactive; negative” (Test System: AMES SALMONELLA TYPHIMURIUM, Strain/Indicator: TA1537, Metabolic Activation: NONE, Method: PREINCUBATION); “inactive; negative” (Test System: AMES SALMONELLA TYPHIMURIUM, Strain/Indicator: TA1537, Metabolic Activation: RAT, LIVER, S-9, PHENOBARBITAL AND 5,6-BENZOFLAVONE, Method: PREINCUBATION); “inactive; negative” (Test System: AMES SALMONELLA TYPHIMURIUM, Strain/Indicator: TA1538, Metabolic Activation: NONE, Method: PREINCUBATION); “inactive; negative” (Test System: AMES SALMONELLA TYPHIMURIUM, Strain/Indicator: TA1538, Metabolic Activation: RAT, LIVER, S-9, PHENOBARBITAL AND 5,6-BENZOFLAVONE, Method: PREINCUBATION); “active; positive” (Test System: AMES SALMONELLA TYPHIMURIUM, Strain/Indicator: TA2637, Metabolic Activation: NONE, Method: PREINCUBATION). In addition, the mutagenic call (Test System: AMES SALMONELLA TYPHIMURIUM, Strain/Indicator: TA2637, Metabolic Activation: RAT, LIVER, S-9, PHENOBARBITAL AND 5,6-BENZOFLAVONE, Method: PREINCUBATION) is “active; positive”; the mutagenic call (Test System: Ames Salmonella typhimurium, Strain/Indicator: TA97, Metabolic Activation: None, Method: Preincubation) is “inactive; negative”; the mutagenic call (Test System: Ames Salmonella typhimurium, Strain/Indicator: TA97, Metabolic Activation: Rat, Liver, S9, Aroclor 1254, Method: Preincubation) was “inactive; negative”; the mutagenic call (Test System: Ames Salmonella typhimurium, Strain/Indicator: TA98, Metabolic Activation: None, Method: Preincubation) was “inactive; negative”; the mutagenic call (Test System: Ames Salmonella typhimurium, Strain/Indicator: TA98, Metabolic Activation: Rat, Liver, S9, Aroclor 1254, Method: Preincubation) was “inactive; negative”; the mutagenic call (Test System: Ames Salmonella typhimurium, Strain/Indicator: TA100, Metabolic Activation: None, Method: Preincubation) is “inactive; negative”. The mutagenic call (Test System: Ames Salmonella typhimurium, Strain/Indicator: TA100, Metabolic Activation: Rat, Liver, S9, Aroclor 1254, Method: Preincubation) is “inactive; negative”; the mutagenic call (Test System: Ames Salmonella typhimurium, Strain/Indicator: TA102, Metabolic Activation: None, Method: Preincubation) was “inactive; negative”; the mutagenic call (Test System: Ames Salmonella typhimurium, Strain/Indicator: TA102, Metabolic Activation: Rat, Liver, S9, Aroclor 1254, Method: Preincubation) was “inactive; negative”.
For the compound `COC1(O[C@H]2CC[C@H]3[C@@H]4CC[C@H]5C[C@@H]6S[C@@H]6C[C@]5(C)[C@H]4CC[C@]23C)CCCC1`, the mutagenic call was “inactive; negative” under setting [2]; “inactive; negative” (Test System: AMES SALMONELLA TYPHIMURIUM, Strain/Indicator: TA98, Metabolic Activation: S-9, Method: STANDARD PLATE); “inactive; negative” under setting [3]; “inactive; negative” (Test System: AMES SALMONELLA TYPHIMURIUM, Strain/Indicator: TA100, Metabolic Activation: S-9, Method: STANDARD PLATE); “inactive; negative” (Test System: AMES SALMONELLA TYPHIMURIUM, Strain/Indicator: TA1537, Metabolic Activation: S-9, Method: STANDARD PLATE); “inactive; negative” (Test System: E. COLI, Strain/Indicator: WP2 (HCR), Metabolic Activation: NONE, Method: STANDARD PLATE). The mutagenic call (Test System: E. COLI, Strain/Indicator: WP2 (HCR), Metabolic Activation: S-9, Method: STANDARD PLATE) was “inactive; negative”.
In the case of `N/C(=N\O)c1ccccc1`, the mutagenic call by setting is: (Test System: AMES SALMONELLA TYPHIMURIUM, Strain/Indicator: TA98, Metabolic Activation: CO631 CELLS, Method: PREINCUBATION) “inactive; negative”; under setting [1], “inactive; negative”; (Test System: AMES SALMONELLA TYPHIMURIUM, Strain/Indicator: TA98, Metabolic Activation: RABBIT, LIVER, S-9, Method: PREINCUBATION) “active; positive”; (Test System: AMES SALMONELLA TYPHIMURIUM, Strain/Indicator: TA98, Metabolic Activation: RAT HEPATOCYTES, Method: PREINCUBATION) “inactive; negative”; (Test System: AMES SALMONELLA TYPHIMURIUM, Strain/Indicator: TA98, Metabolic Activation: RAT, LIVER, S-9, AROCLOR 1254, ATP, Method: PREINCUBATION) “inactive; negative”; (Test System: AMES SALMONELLA TYPHIMURIUM, Strain/Indicator: TA98, Metabolic Activation: RAT, LIVER, S-9, AROCLOR 1254, Method: PREINCUBATION) “inactive; negative”. In addition, the mutagenic call by setting is: (Test System: AMES SALMONELLA TYPHIMURIUM, Strain/Indicator: TA100, Metabolic Activation: RABBIT, LIVER, S-9, Method: PREINCUBATION) “inactive; negative”; (Test System: AMES SALMONELLA TYPHIMURIUM, Strain/Indicator: TA100, Metabolic Activation: RAT HEPATOCYTES, Method: PREINCUBATION) “inactive; negative”; (Test System: AMES SALMONELLA TYPHIMURIUM, Strain/Indicator: TA100, Metabolic Activation: RAT, LIVER, S-9, AROCLOR 1254, ATP, Method: PREINCUBATION) “inactive; negative”; (Test System: AMES SALMONELLA TYPHIMURIUM, Strain/Indicator: TA100, Metabolic Activation: RAT, LIVER, S-9, AROCLOR 1254, Method: PREINCUBATION) “inactive; negative”.
